What all share (assay type): physicochemical
The nature of data set [1]: Stability Study 2: BPO/sunscreen mixture, one month at room temperature. Particulars: for 1 MONTH-RT (content) / 1 MONTH-RT (percent of initial, in brackets): Study 2, 1 month room temperature; for % INITIAL (percent of initial, in brackets) / % INITIAL (content): Study 2, initial; for % INITIAL (content): in BPO/sunscreen mixture. The source says: (§1) The stability provided by using the above formula and mixing process has heretofore been unmatched.

The nature of data set [2]: Stability Study 3: BPO/sunscreen mixture, one month at room temperature. Particulars: for 1 MONTH-RT (content) / 1 MONTH-RT (percent of initial, in brackets): Study 3, 1 month room temperature; for % INITIAL (percent of initial, in brackets) / % INITIAL (content): Study 3, initial; for % INITIAL (content): in BPO/sunscreen mixture.
Excerpt: as §1

The nature of data set [3]: Stability Study 4: BPO/sunscreen mixture, one month at room temperature. Particulars: for 1 MONTH-RT (content) / 1 MONTH-RT (percent of initial, in brackets): Study 4, 1 month room temperature; for % INITIAL (percent of initial, in brackets) / % INITIAL (content): Study 4, initial; for % INITIAL (content): in BPO/sunscreen mixture.
Excerpt: as §1

Data set [4] is described as follows: Stability Study 1: BPO/sunscreen mixture, one month at room temperature. Particulars: for 1 MONTH-RT (content) / 1 MONTH-RT (percent of initial, in brackets): Study 1, 1 month room temperature; for % INITIAL (percent of initial, in brackets) / % INITIAL (content): Study 1, initial; for % INITIAL (content): in BPO/sunscreen mixture.
Excerpt: as §1

Data set [5] is described as follows: Multiple one-month room temperature studies after mixing the agents together. Particulars: BPO at various percentages.
Excerpt: as §1

The nature of data set [6]: Stability of sunscreen base and benzoyl peroxide each before mixing. Particulars: each agent separately, one-month repeatable studies.
Excerpt: as §1

We go through three molecules from patent publication US20110070174A1, “Benzoyl Peroxide and Sunscreen Agent Combination” (PruGen IP Holdings, Inc., priority 2009, published 2011).

As to `COc1ccc(C(=O)CC(=O)c2ccc(C(C)(C)C)cc2)cc1` [Avobenzone], in data set [1], the “1 MONTH-RT (content)” value is 2.78%; the “1 MONTH-RT (percent of initial, in brackets)” value came to 86%; the “% INITIAL (percent of initial, in brackets)” value is listed as 100%; the “% INITIAL (content)” value is recorded as 3.23%. In data set [2], the “1 MONTH-RT (content)” value stood at 2.69%; the “1 MONTH-RT (percent of initial, in brackets)” value stood at 91.5%; the “% INITIAL (percent of initial, in brackets)” value is reported as 100%; the “% INITIAL (content)” value is 2.94%.

As to `CCCCC(CC)COC(=O)C(C#N)=C(c1ccccc1)c1ccccc1` (stereo not shown) [Octocrylene], in data set [3], the “1 MONTH-RT (content)” value turned out to be 6.42%; the “1 MONTH-RT (percent of initial, in brackets)” value was determined as 101%; the “% INITIAL (percent of initial, in brackets)” value is reported as 100%; the “% INITIAL (content)” value came out at 6.33%. In addition, in data set [4], the “1 MONTH-RT (content)” value is 6.42%; the “1 MONTH-RT (percent of initial, in brackets)” value is 101%; the “% INITIAL (percent of initial, in brackets)” value is 100%; the “% INITIAL (content)” value is recorded as 6.33%.

As for `O=C(OOC(=O)c1ccccc1)c1ccccc1` [BPO, Benzoyl peroxide], in data set [1], the “1 MONTH-RT (content)” value is given as 8.07%; the “1 MONTH-RT (percent of initial, in brackets)” value was found to be 94%; the “% INITIAL (percent of initial, in brackets)” value worked out at 100%; the “% INITIAL (content)” value is 8.55%. In addition, in data set [2], the “1 MONTH-RT (content)” value turned out to be 6.48%; the “1 MONTH-RT (percent of initial, in brackets)” value was determined as 107%; the “% INITIAL (percent of initial, in brackets)” value stood at 100%; the “% INITIAL (content)” value is 6.02%. Further, in data set [3], the “1 MONTH-RT (content)” value is 7.76%; the “1 MONTH-RT (percent of initial, in brackets)” value was determined as 108%; the “% INITIAL (percent of initial, in brackets)” value is on record as 100%; the “% INITIAL (content)” value is listed as 7.16%. Also, in data set [5], the potency after mixing result is on record as “remained at full potency”. Also, the “stability of each agent” value in data set [6] was “stable for at least one year”. For the same molecule, in data set [4], the “1 MONTH-RT (content)” value is 7.76%; the “1 MONTH-RT (percent of initial, in brackets)” value turned out to be 108%; the “% INITIAL (percent of initial, in brackets)” value is recorded as 100%; the “% INITIAL (content)” value is 7.16%.
